Laboratory results reported in article PMC11342128, “Gold(I) and gold(III) carbene complexes from the marine betaine norzooanemonin: inhibition of thioredoxin reductase, antiproliferative and antimicrobial activity” (RSC Medicinal Chemistry, 2024).

Tests used:
A549 cells = assay: Gold cellular uptake, HRCS-AAS; format: cell-based; conditions: 2 μM, Fig. 5
Experimental: The amount of potential drug accumulated in the cell is often described as one of the critical factors for further biological effect. The significant difference in antiproliferative effect observed for dicarbene complexes 5a–c may be directly related to the amount of gold ions taken up by the treated cells. The cellular accumulation of these complexes was evaluated in the most sensitive cancer cell line A549. […] The gold content was further quantified using high-resolution continuum source atomic absorption spectroscopy (HRCS-AAS).
S2.4. Cellular uptake and metal quantification studies in A549 cells
Cellular uptake studies in A549 cells
For cellular accumulation studies, A549 lung carcinoma cells were seeded in 75 cm2 cell culture flasks, incubated with 10 ml DMEM/10% FCS cell culture medium at 37 °C in a 5% CO2 humidified atmosphere until they reached a confluence of 75-80%. The cells were treated with DMEM containing selected test compounds 3a and 3c dissolved in DMF (final DMF concentration: 0.1%; final test compound concentration: 2 μM). After 6 and 24 h of exposure, cells were isolated by removing the media followed by trypsinization. The trypsinized cells were washed with 9 ml PBS buffer (pH 7.4), scraped, and isolated by centrifugation (5 min, 3500 rpm). The obtained cell pellets were stored at -20 °C for further use. All experiments were carried out in triplicate.
Metal quantification in cell lysates by HRCS-AAS
Dry cell pellets were diluted with 400 μl of Milli-Q® water and lysed for 30 min in an ultrasonic bath (240 W, […]). For protein quantification. 20 μl of each sample was added to 200 μl of Bradford reagent (25 mg Serva Blue G (Sigma Aldrich) in 25 ml Ethanol 96%, 25 ml Milli-Q® water and 50 ml H3PO4 86%, stored at -20 °C and freshly diluted 1+4 with Milli-Q® water prior to use) and incubated on a 96-well plate while shaking at room temperature for 30 min and measured by a Perkin Elmer Victor X4 plate reader at a wavelength of 595 nm. The measurements were performed in duplicate, and the mean was used to calculate the protein content. For a standard calibration curve, bovine serum albumin (Sigma Aldrich) was used in graded concentrations.
The gold quantification was performed using a high-resolution continuum source atomic absorption spectrometer ContrAA® 700 (Analytik Jena AG). A pure sample of the respective complex 5c was used as standard, and calibration was done in a matrix-matched manner (meaning all samples and standards were adjusted to a protein concentration of 1 mg/ml by dilution with Milli-Q® water). The calibration and samples were measured in duplicate. The final cellular gold concentrations were calculated from data obtained in three independent experiments and are expressed as pmol of metal per mg of cell protein. Sample preparation: Triton-X 100 (1%, 20 μl) and ascorbic acid (1%, 20 μl) were added to each calibration standard or probe (200 μl). A volume of 20 μl was injected into a coated standard graphite tube (Analytik Jena AG) and thermally processed as previously described.[10] The gold amount was analyzed at a wavelength of 242.79 nm.

[1] = test system: Vero E6 African green monkey kidney cells; assay: Antiproliferative activity in non-tumour reference cell line; format: cell-based; conditions: for IC50: Vero E6 non-tumour reference cell line, SD in parentheses, n = 3; for Tumour selectivity: tumour cell lines in comparison to Vero E6: comparison of IC50 in tumour cell lines and non-tumour Vero E6
Experimental: The antiproliferative potential of the gold–NHC complexes was determined in A549 lung carcinoma cells, MDA-MB-231 breast cancer cells, MCF-7 breast adenocarcinoma cells, and HT-29 colon carcinoma cells (Table 1). Vero E6 African green monkey kidney cells served as a reference cell line to check for possible tumour selectivity. Auranofin (AF) was used as an established reference drug.[15,17] […]
S2.2. Cytotoxicity and Anticancer Studies
Cell culture and cytotoxicity
Cell lines were sourced from DSMZ (German Collection of Microorganisms and Cell Cultures GmbH) and maintained through standard procedures in Dulbecco's Modified Eagle Medium (DMEM) supplemented with 10% fetal calf serum and 50 mg/L gentamycin. Antiproliferative effects were assessed using a well-established assay protocol. In brief, 100 μL volumes of A549 cells (13,243 cells per mL), HT-29 cells (14,657 cells per mL), MDA-MB-231 cells (6,613 cells per mL), or MCF-7 cells (6,917 cells per mL) were transferred into the wells of 96-well plates and incubated at 37°C/5% CO2 for 72 […]
Freshly prepared stock solutions of the compounds in DMSO were diluted with the respective cell culture medium to achieve graded concentrations (final concentration of DMSO: 0.1% v/v). After 72 hours (A549, HT-29) or 96 hours (MCF-7, MDA-MB-231) of exposure, the cell biomass was assessed through crystal violet staining, and the IC50 value was determined as the concentration causing 50% inhibition of cell proliferation compared to an untreated control. Results were calculated as the mean values of three independent experiments.

TrxR from E. coli = TrxR from E. coli (Escherichia coli, UniProt P0A9P4); assay: Inhibition of isolated bacterial TrxR, DTNB-based assay; format: biochemical; set-up: purchased Sigma-Aldrich; conditions: compounds at 0.5 µM; n = 2; Table S13
Experimental: The inhibition of isolated TrxR from E. coli was determined for the selected monocarbene gold(I/III) complexes 2a–c and 4b–c using a DTNB-based assay (Table 3). […] The inhibition of bacterial TrxR for compound 2a was investigated in our previous report (Table 3).
S2.3. Inhibition of bacterial TrxR from E. coli
The TrxR (E. coli) inhibition assay was performed according to previously published procedures.[8] The assay is partly based on the procedure developed by Lu et al[9] and makes use of the reduction of DTNB (5,5′-dithiobis-(2-nitrobenzoic acid)). Solutions of E. coli TrxR (10.1 U/mL) and E. coli thioredoxin (Trx) (312 μg/mL) (both purchased from Sigma-Aldrich) were prepared in distilled water. Stock solutions of the test compounds (2 mM) were prepared in DMSO and serially diluted with TE buffer (Tris-HCl 50 mM, EDTA 1 mM, pH 7.5). 20 μL of these solutions or TE buffer without the test compounds (positive control) were mixed with the TrxR solution (10 μL), the Trx solution (10 μL) and 100 µl of NADPH (200 μM) in TE buffer in a well on a 96-well plate. As a blank control, 200 μM NADPH in TE buffer (100 μL) mixed with a DMSO / buffer mixture (40 μL) was used (final concentrations of DMSO: 0.5% v/v). The plate was incubated for 75 min at 25°C with moderate shaking. After incubation, 100 μL of a reaction mixture (TE buffer containing 200 μM NADPH and 5 mM DTNB) was added to each well to initiate the reaction. After thorough mixing, the formation of 5-TNB was monitored by a microplate reader at 405 nm in 35 s intervals (10 measurements). The values were corrected by subtraction of the blank solution absorption values. The increase in concentration of 5-TNB followed a linear trend (r2≥ 0.990) and the enzymatic activities were calculated as the gradients (increase in absorbance per second) thereof. […]
for each test compound, where the highest test compound concentration was used and the enzyme solution was replaced by TE buffer. The inhibition is presented as the mean IC50 values and standard deviations obtained in three independent experiments.
Table S13. Activity of TrxR from E. coli in presence of compounds at 0.5 µM (n = 2, n.d.= not

Sequence of TrxR from E. coli (P0A9P4 2-321): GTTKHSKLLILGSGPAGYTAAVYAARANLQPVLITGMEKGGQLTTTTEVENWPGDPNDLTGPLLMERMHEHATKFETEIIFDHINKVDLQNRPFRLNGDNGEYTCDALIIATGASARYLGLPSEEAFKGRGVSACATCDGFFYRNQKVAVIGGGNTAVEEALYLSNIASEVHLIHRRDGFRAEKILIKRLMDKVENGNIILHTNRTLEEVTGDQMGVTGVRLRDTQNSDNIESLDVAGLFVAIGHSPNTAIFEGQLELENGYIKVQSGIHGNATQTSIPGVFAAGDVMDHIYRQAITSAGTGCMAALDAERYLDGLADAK

SMILES	Gold uptake (cellular gold content) (A549 cells; 6 h, 37 °C)	Gold uptake (cellular gold content) (A549 cells; 24 h compared with 6 h)	IC50 [1]	Tumour selectivity: tumour cell lines in comparison to Vero E6 [1]	TrxR activity, % of control (TrxR from E. coli)
COC(=O)c1cn(C)[c]([Au-]([Cl])([Cl])[c]2n(C)cc(C(=O)OC)[n+]2C)[n+]1C.O=S(=O)([O-])C(F)(F)F [5b]	higher degree of gold uptake	decreased significantly	> 100 µM	clear preference for the tumour cell lines	90.8 % of control
CCOC(=O)c1cn(C)[c]([Au-]([Cl])([Cl])[c]2n(C)cc(C(=O)OCC)[n+]2C)[n+]1C.F[B-](F)(F)F [5c]	higher degree of gold uptake	decreased significantly	30.8 µM	clear preference for the tumour cell lines	93.5 % of control
Cn1cc(C(=O)O)[n+](C)[c]1[Au-]([Cl])([Cl])[c]1n(C)cc(C(=O)O)[n+]1C.[Cl-] [5a]	low gold uptake		> 100 µM		91.6 % of control
